Measured values reported in patent US20240025946A1, “Cyclic Tetrapeptides and Metal Complexes Thereof” (priority 2020, published 2024).
Numbered stars: 1 amine (or outer) side, 2 acyl side, 3 side chain; on linkers, the order of the positions; unused ones are H or OH. Square brackets hold non-standard residues; d marks the D form. Ends that are not written are not given here. SAsp = aspartic acid substituted by -SH; βAsp = O=C(O)[C@H](CC(=O)[*:2])N[*:1]; β3hE = N[C@@H](CCC(=O)O)CC(=O)O; βAla = NCCC(=O)O

Tests used:
[1] = Aqueous solubility of the peptides; assay type: physicochemical
Text: Attempts to solubilize them, including in different pH conditions, formulation with PEG or co-solvent systems with DMSO failed. Therefore, two analogs of 1 where βAla is substituted by PAsp or PhGlu, to form peptides 1a and 1b, respectively, were synthesized. […] Their low activity might be related to either (a) competition in coordination with Pb^2+ by the two carboxylates, which destabilizes the complexation, or (b) a decrease in their metal selectivity and coordination alkali or alkaline earth metal ions.

DH5α E. coli = assay: In vivo recovery test: Pb detoxification of poisoned bacteria, colony counting; assay type: cell-based; details: for detoxification ability in poisoned E. coli (in words): compared to the benchmark compounds, FIG. 2a; for Recovery DH5α (%): highest concentration 120 mM (10 equiv.), Pb(NO3)2 12 mM, vs poisoned untreated cells, mean
Procedure: (§1) Desalted peptides were then assessed for their ability to detoxify Pb (FIGS. 2a-d). The inventors designed two assays for rapid and reliable screening of potential CAs both in vivo on bacteria and then in vitro on human cell culture. Briefly, DH5a or HT-29 cells were first exposed to Pb(NO3)2 slightly below the minimal inhibitory concentration and then treated with various concentrations of the investigated CA, ranging from 0.1 to 10 equivalents. The viability of the cells was determined by colony counting or by crystal violet (Feoktistova et al, 2016), for the bacteria and the human cells, respectively, and was compared to poisoned cells that were not treated with any CA as the negative control. […] On the other hand, testing the compounds on human cells cannot be performed with insoluble compounds but is more relevant for medicinal purposes.
HRMS (ESI) m/z calculated for C16H26N4O4SNa^+ [M+Na]^+ 427.14442; found: 427.14447 In vivo recovery tests A single colony of DH5a E. coli WT cells was grown overnight at 37° C. and 220 rpm in Tris Minimal Medium (TMM, pH 6.0; 5 mL) without antibiotics. The culture was then diluted to an OD600 of 0.03 with additional TMM to a total volume of 5 mL, and its OD600 was monitored. Upon cell density of 0.25 (which was achieved after 3-5 h), 1 mL of the culture was transferred into a cell culture tube and was labeled as the positive control. To additional 3 mL of the culture, 36 μL of Pb(NO3)2 1 M were added (final concentration of 12 mM). Both cultures were shaken at 37° C. and 220 rpm for an additional 5 h.
Aqueous stock solutions of each CA were plated on freshly prepared agar-LB plates such that the final concentration of each compound is equal to 0.5, 1, 2, 5, and 10 equivalents, compared to the amount of Pb(NO3)2 in 50 μL pre-toxified culture. The stock solutions were prepared such that plating and equally spreading 30 μL of each solution will provide the desired amount of CA. To additional two plates, 30 μL of H2O was added.
50 μL of the pre-toxified culture were homogenously spread to each CA-containing plate, 5 h after adding the metal to the culture. The Pb-containing culture was also plated on one of the two H2O-containing plates and was labeled as the negative control. Lastly, 50 μL of the non-toxified culture were platted on the second H2O-containing plate and was labeled as positive control. All plates (positive and negative control and five plates for each examined compound) were then incubated at 37° C. overnight. The plates were then imaged, and the colonies were counted (with Vilber Quantum Visualization System). The recovery of each concentration of CA was calculated according to equation 1: […]
#CAx—number of colonies of pre-toxified culture in a plate containing X mM of CA
#NEG—number of colonies of pre-toxified culture in a plate containing no CA
(§2) Each experiment was performed on three independent occasions. Values are mean±SD of >3 repeats each performed in triplicate.

HT-29 cells [2] = assay: In vitro recovery test: Pb detoxification of poisoned human cells, crystal violet; assay type: cell-based; details: for effect of the counter cation (Ca vs. Na salt) on detoxification activity: HT-29, FIG. 2d; for Recovery HT-29 (%): highest concentration 10 mM (5 equiv.), vs poisoned untreated cells, mean, SD
Procedure: as §1
96-well plates were prepared such that every well contains 10,000 cells in 100 μL medium, and the cells were allowed to adhere overnight. To all wells but the positive control, 10 μL of 22 mM Pb(NO3)2 were added (final concentration 2 mM). 10 μL of H2O was added to the positive control wells. 60 min after addition of metal, 10 μL of each solution of the examined CA (2.4, 6, 12, 24, 48, and 120 mM) were added to reach final concentrations of 0.2, 0.5, 1, 2, 4, and 10 mM (which are 0.1, 0.25, 0.5, 1, 2, and 5 equivalents, respectively). To the positive control wells containing no metal and the negative control wells containing metal but no CA, 10 μL of H2O were added. Each condition was performed in triplicates. The plates were incubated at 37° C. and 5% CO2 for an additional 23 h, after which the medium was removed, washed with fresh medium and 50 μL of crystal violet solution (0.5% crystal violet powder in 20 mL MeOH and 80 mL H2O) to each well and the plates were gently shaken (60 rpm) for 20 min. The plates were then washed with H2O until no more unbound dye was observed and allowed to dry overnight. 200 μL of MeOH were added to each well, and the plates were gently shaken (60 rpm) for 20 min, after which their absorbance at 560 nm was read with a plate reader. The recovery of each concentration of CA was calculated according to equation 2:
(§3) A[CAx]—absorbance of the pre-toxified well in the presence of X mM of CA
(§4) A[blank]—absorbance of blank wells (contain nothing)
A[NEG]—absorbance of the pre-toxified well that contains no CA
as §2

HT-29 cells [3] = assay: In vitro toxicity test, crystal violet; assay type: cell-based, human; details: HT-29, 24 h; for IC50: concentration at 50% viability, mean (SD), n.d. = not detected as it is too high
Procedure: 96-well plates were prepared such that every well contains 10,000 cells in 100 μL medium, and the cells were allowed to adhere overnight.
To all wells but the positive control, 10 μL of each solution of the examined CA (2.4, 6, 12, 24, 48, and 120 mM) were added to reach final concentrations of 0.2, 0.5, 1, 2, 4, and 10 mM. To the positive control wells, 10 μL of H2O was added. Each condition was performed in triplicates. The plates were incubated at 37° C. and 5% CO2 for 24 h, after which the medium was removed, washed with fresh medium and 50 μL of crystal violet solution (0.5% crystal violet powder in 20 mL MeOH and 80 mL H2O) to each well and the plates were gently shaken (60 rpm) for 20 min. The plates were then washed with H2O until no more unbound dye was observed and allowed to dry overnight. 200 μL of MeOH were added to each well, and the plates were gently shaken (60 rpm) for 20 min, after which their absorbance at 560 nm was read with a plate reader. The toxicity of each concentration of CA was calculated according to equation 3:
as §3, §4
A[POS]—absorbance of well that contains no CA
as §2

male mice (C57BL/6) = assay: Pb-poisoned mice: blood lead level and urinary Pb by ICP-MS; assay type: in vivo; details: for BLL / Urinary Pb (ppm): 30 mg kg^−1 day^−1, days 10-16; for BLL: blood on day 18, eight mice; for Urinary Pb (ppm): urine on day 18
Procedure: Peptide 8a was then tested in mice. 40 male mice (C57BL/6) aged 6-8 weeks were provided with 20 mM Pb(OAc)2 solution as the sole water supply for seven days (days 1-7). This poisoning route mimics chronic exposure in humans. Two days after returning to clean water (day 9), they were randomly divided into five groups of eight mice. They received a single treatment per day for seven days (days 10-16) of either CaNa2EDTA, DMSA, or 8a at a concentration of 30 mg kg^−1 except for group 1 that served as the negative control (Table 3).
Blood samples (100 μL) were collected before dosing the mice on days 10-15 and on day 18, which is two days after the last dosing and the day by which the experiment was terminated. Urine was also collected from 34 animals on day 18 and was kept frozen until analysis.

[4] = also different pH, PEG formulation, DMSO co-solvent failed
[5] = soluble^b = with the addition of 2 equiv. NaOH or 1 equiv. of Ca(OH)2
[6] = inhibition at the highest concentration (10 mM), mean, SD

## O=C1CCNC(=O)[C@H](CS)NC(=O)CCNC(=O)[C@H](CS)N1 [compound 1, Cys-βAla-Cys-βAla]
[1]; [4]
  Aqueous solubility: low aqueous solubility
[1]; [5]
  Aqueous solubility: insoluble
DH5α E. coli; DH5α, treatment after Pb(NO3)2
  increase of recovery of poisoned E. coli: more than 8 fold
DH5α E. coli
  detoxification ability in poisoned E. coli (in words): outstanding results

## CSCC[C@@H]1NC(=O)CCNC(=O)[C@H](CS)NC(=O)CCNC1=O [compound 6, Cys-βAla-Met-βAla]
[1]; [4]
  Aqueous solubility: low aqueous solubility
[1]; [5]
  Aqueous solubility: insoluble
DH5α E. coli
  detoxification ability in poisoned E. coli (in words): outstanding results

## CSCC[C@@H]1NC(=O)CCNC(=O)[C@H](CCSC)NC(=O)CCNC1=O [compound 3, Met-βAla-Met-βAla]
[1]; [5]
  Aqueous solubility: insoluble
DH5α E. coli
  Recovery DH5α (%): 139%

## O=C1CCNC(=O)[C@H](Cc2ccccc2)NC(=O)CCNC(=O)[C@H](CS)N1 [compound 9, Cys-βAla-Phe-βAla]
[1]; [5]
  Aqueous solubility: insoluble
DH5α E. coli
  Recovery DH5α (%): 180%

## O=C(O)CN(CCN(CC(=O)O)CC(=O)O)CC(=O)O [EDTA, ethylenediaminetetraacetic acid]
HT-29 cells [2]
  effect of the counter cation (Ca vs. Na salt) on detoxification activity: higher activity as a Ca-salt

## O=C(O)C[C@@H]1NC(=O)CCNC(=O)[C@H](CC(=O)O)NC(=O)CCNC1=O [compound 5, Asp-βAla-Asp-βAla]
HT-29 cells [2]; Pb(NO3)2 2 mM
  Recovery HT-29 (%): 121%
[1]; [5]
  Aqueous solubility: soluble^b
DH5α E. coli
  Recovery DH5α (%): 150%
HT-29 cells [3]; [6]
  Toxicity Maximal inhibition (%): 44%

## cyc[Cys-βAla-Asp-βAla] [peptide 8]
HT-29 cells [2]
  effect of the counter cation (Ca vs. Na salt) on detoxification activity: barely affected by the counter cation
[1]; [5]
  Aqueous solubility: soluble^b
DH5α E. coli
  detoxification ability in poisoned E. coli (in words): outstanding results
  Recovery DH5α (%): 279%
HT-29 cells [3]; [6]
  Toxicity Maximal inhibition (%): 15±5%

## O=C1CCNC(=O)[C@@H](CS)NC(=O)CCNC(=O)[C@H](CS)N1 [peptide 2, Cys-βAla-DCys-βAla]
[1]; [4]
  Aqueous solubility: low aqueous solubility
[1]; [5]
  Aqueous solubility: insoluble
DH5α E. coli
  detoxification ability in poisoned E. coli (in words): outstanding results

## cyc-[SAsp-βAla-Asp-βAla] (cyclo([SAsp][βAla]D[βAla])) [8a]
HT-29 cells [2]; Pb(NO3)2 2 mM, CA added 1 h later, vs all investigated peptides and standards of care, FIG. 4
  dose-dependent recovery of HT-29 cells (in words): best results
Male mice (C57BL/6); IV and oral, vs CaNa2EDTA and DMSA, day 18
  removal of Pb in urine compared with the SOCs: 1.3-2.2 folds
Male mice (C57BL/6); IV
  BLL: 16.0 ± 1.5 µg/dL
  Urinary Pb (ppm): 452 ± 47 ppm
Male mice (C57BL/6); IV, day 18
  Pb expelled in urine compared with the untreated group: 2.9 folds
  reduction of average BLL compared to no treatment: 2.1 folds
  reduction of average BLL compared with CaNa2EDTA: 1.6 folds
Male mice (C57BL/6); Oral
  BLL: 17.7 ± 1.3 µg/dL
  Urinary Pb (ppm): 435 ± 28 ppm
Male mice (C57BL/6); oral, day 18
  Pb expelled in urine compared with the untreated group: 2.8 folds
  reduction of BLL compared with DMSA: 1.3 folds
  reduction of BLL compared with no treatment: 1.9 folds

## O=C1CCNC(=O)[C@H](Cc2c[nH]cn2)NC(=O)CCNC(=O)[C@H](CS)N1 [compound 7, Cys-βAla-His-βAla]
[1]; [5]
  Aqueous solubility: insoluble
DH5α E. coli
  Recovery DH5α (%): 47%

## [Cys-βhGlu]2 (C[β3hE]C[β3hE]; not fully specified (bridges); printed as [Cys-βhGlu]2; also: cyclic, ring type not given here) [1b, cyclic tetrapeptide]
[1]
  solubility as Na or Ca salts: high solubility
[1]; [5]
  Aqueous solubility: soluble^b
DH5α E. coli
  detoxification ability in poisoned E. coli (in words): unsatisfied
  Recovery DH5α (%): 30%

## N[C@@H](CCC(=O)N[C@@H](CS)C(=O)NCC(=O)O)C(=O)O [GSH, glutathione]
HT-29 cells [2]; Pb(NO3)2 2 mM
  Recovery HT-29 (%): 126%
DH5α E. coli
  Recovery DH5α (%): 39%
HT-29 cells [3]; Homo sapiens
  IC50: 9.6 mM
HT-29 cells [3]; Homo sapiens, inhibition at the highest concentration (10 mM), mean, SD, read-out: Toxicity Maximal inhibition (%)
  inhibition at 10000 µM: 57%

## O=C([O-])CN(CCN(CC(=O)[O-])CC(=O)O)CC(=O)O.[Na+].[Na+] [Na2EDTA]
HT-29 cells [2]; Pb(NO3)2 2 mM
  Recovery HT-29 (%): 41%
DH5α E. coli
  Recovery DH5α (%): 107%
HT-29 cells [3]
  IC50: 0.6 mM
HT-29 cells [3]; [6]
  Toxicity Maximal inhibition (%): 72%

## C[βAsp]C[βAsp] (cysteine pairing not given here) [1a]
HT-29 cells [2]; Pb(NO3)2 2 mM
  Recovery HT-29 (%): 106%
[1]
  solubility as Na or Ca salts: high solubility
[1]; [5]
  Aqueous solubility: soluble^b
DH5α E. coli
  detoxification ability in poisoned E. coli (in words): unsatisfied
  Recovery DH5α (%): 2%
HT-29 cells [3]; [6]
  Toxicity Maximal inhibition (%): 0%
